Results on two molecules are retold here after US9068977B2, “Non-linear rotation rates of remotely driven particles and uses thereof” (THE REGENTS OF THE UNIVERSITY OF MICHIGAN, priority 2007, dated 2015).

For one test, the system named is E. coli. Kind of test: Growth of bacteria attached to a magnetic microsphere, monitored by nonlinear rotation period. It counts as cell-based. To be noted: bacteria exposed to isopropyl alcohol (70%) for 15 minutes; control, FIG. 4d circles; growth media alone gave 75% increase over 25 min. The text has this:
Rotation rates were observed under fluorescent, reflection, and bright-field microscopy. FIG. 4(a) was obtained by measuring the average rotation rate of a magnetic microsphere (with an attached E. coli) for increasing magnetic driving frequencies. The critical frequency, where the magnetic particle goes from synchronous with driving field to asynchronous (nonlinear), occurs abruptly at 1.27 Hz. Measurements for (b), (c), and (d) were then made in this nonlinear regime. Bacteria attached to magnetic microspheres were optically detected by fluorescence of DsRed fluorescent protein transformed bacteria.
The magnetic microspheres with one bacterium attached rotated 33.8 times slower than the blank microspheres. […] There was an incremental 75% increase in rotation period over 25 min.

A further test has as its system E. coli K-12 bacteria. Kind of test: Effect of antibiotic on bacterial growth, monitored by nonlinear rotation of magnetic particles. The class given is cell-based. As to conditions: 5% w/v Ampicillin antibiotic solution; cluster of 40 μm magnetic particles attached to small colony; Luria Broth (Miller) Growth Media; FIG. 9 bottom curve. An excerpt:
The top curve is for several particles attached to a small colony of E. coli K-12 bacteria in Luria Broth (Miller) Growth Media. The rotational period increases over time, indicating bacterial grow. […] In certain configurations, especially when particles are at an interface, such as an air-liquid interface, the nonlinear rotation may occur in a plane perpendicular to the plane of the external driving magnetic field. This type of nonlinear rotation occurred in the above exemplary measurement.

Each structure is given as a SMILES string.

Regarding `CC(C)O` [isopropyl alcohol], the “change in normalized rotation period (growth of attached bacteria)” value in the test with E. coli is on record as “an increase just within the limits of the error bars”.
In the case of `CC1(C)S[C@@H]2[C@H](NC(=O)[C@H](N)c3ccccc3)C(=O)N2[C@H]1C(=O)O` [Ampicillin], the “normalized rotational period over time (indicator of bacterial growth)” value with E. coli K-12 bacteria was “decreases or stays constant over time”.
